Where “and” joins values, the source holds several entries; their conditions need not be identical. Identical values can stand only once.
Legend:
SPL induced apoptosis = conditions: cells overexpressing SPL; cited from earlier work
[1] = system: HEK294 cells expressing human SPL cDNA construct (hSPL); test: Viability by MTT assay with doxorubicin, vector vs hSPL cells; format: cell-based; conditions: cells overexpressing SPL vs pcDNA3 vector; 24 h or 48 h; FIG. 1
Method: HEK294 cells expressing either pcDNA3 vector (PC) or a human SPL cDNA construct (hSPL) were incubated for 24 h (black bars) or 48 h (white bars) with doxorubicin, harvested and viability was determined by MTT assay. (Mosmann, J Immunol Methods, 1983, 65(1-2): 55-63).

[2] = system: HEK293 kidney cells stably overexpressing human SPL (hSPL); test: Viability by MTT assay with daunorubicin, vector vs hSPL cells; format: cell-based; conditions: hSPL cells vs vector control; FIG. 2
Method: In an additional experiment, HEK293 cells expressing human SPL or vector control were treated with daunorubicin (DNR), and viability was determined by MTT assay. This assay relies on reduction of 3-(4,5-dimethylthiazol-2-yl)-2,5-diphenyl tetrazolium bromide (MTT reagent) by viable cells.

[3] = system: ischemia/reperfusion (I/R) injury; test: Langendorff isolated heart ischemia/reperfusion, hearts from THI-treated mice; format: in vivo, C57BL6 male mice
Method: C57BL6 male mice were given THI in the water supply for 3 days. […] This example describes use of an isolated perfused heart model system for assessing cardioprotective effects of SPL inhibitors. […] Platinum electrodes connected to a stimulus generator are used to pace hearts at 360 beats/min. […] The balloon is inserted through the left atrium into the left ventricle, and pressures are recorded continuously on a chart recorder. Coronary flow is measured by collecting effluent from the coronary sinus. Noninvasive measurement of LV size and function are performed using standard echocardiographic methods in unanesthetized mice. LV dimensions, fractional shortening and ejection fraction are calculated before and at the end of a treatment period, before sacrifice in all animals.

bst1Δ cells = test: Sphingosine sensitivity of yeast growth, bst1Δ strain; format: cell-based, Saccharomyces cerevisiae; conditions: concentrations as low as 10 μM sphingosine
Description: (§1) A further test for SPL activity may be based upon functional complementation in the bst1Δ strain. It has been found, within the context of the present invention, that bst1Δ cells are highly sensitive to D-erythro-sphingosine. […] Such a level of sphingosine has no effect on the growth of wildtype cells.
(§2) A further test for SPL activity may be based upon functional complementation in the bst1Δ strain of Saccharomyces cerevisiae (Saba et al., 1997 J. Biol. Chem. 272:26087). It was been found, within the context of the presently disclosed embodiments, that bst1Δ cells were highly sensitive to D-erythro-sphingosine. […] Such a level of sphingosine had no effect on the growth of wildtype cells.

wildtype cells = test: Sphingosine sensitivity of yeast growth, wildtype; format: cell-based, Saccharomyces cerevisiae; conditions: 10 μM sphingosine
Description: as §1, §2

In the case of `C[S+]([O-])c1ccc(-c2nc(-c3ccncc3)c(-c3ccc(F)cc3)[nH]2)cc1` (centres unmarked) [SB203580], the “effect on SPL induced apoptosis” value (SPL induced apoptosis) is given as “attenuation”.
For `Cc1ccc(C(=O)Cn2c3c(sc2=N)CCCC3)cc1` [pifithrin α], the “effect on SPL induced apoptosis” value (SPL induced apoptosis) is given as “attenuation”.
With `COc1cccc2c1C(=O)c1c(O)c3c(c(O)c1C2=O)C[C@@](O)(C(=O)CO)C[C@@H]3O[C@H]1C[C@H](N)[C@H](O)[C@H](C)O1` [doxorubicin] the “cell survival in the presence of doxorubicin” value [1] was “significantly reduced”.
With `COc1cccc2c1C(=O)c1c(O)c3c(c(O)c1C2=O)C[C@@](O)(C(C)=O)C[C@@H]3O[C@H]1C[C@H](N)[C@H](O)[C@H](C)O1` [daunorubicin] the “sensitivity to daunorubicin (viability, MTT)” value [2] was “more sensitive”.
In the case of `CC(=O)c1nc(C(O)C(O)C(O)CO)c[nH]1` (centres unmarked) [THI, 2-acetyl-4-tetrahydroxybutylimidazole], the “size of infarction (tissue uptake of tetrazolium red, TTC)” value ([3]; after 50 min ischemia, 40 min reperfusion, control heart 35%) is reported as 17%, the “LVEDP (LV end-diastolic pressure)” value ([3]; after 50 min no-flow ischemia, 40 min reperfusion, control heart 52) is reported as 34 mmHg and the “LVDP % Recovery, Ave.” value ([3]; average of 3 animals) is reported as 59.2%. For the same compound, the “LVDP Baseline, Ave.” value ([3]; average of 3 animals) was 133.0 mmHg, the “LVDP Reperf. 40′, Ave.” value ([3]; average of 3 animals) was 79.7 mmHg and the “LVDP (Left Ventricular Developed Pressure), Reperf. 40′” value ([3]; individual animals, 50 min no-flow ischemia, 40 min reperfusion) was 52 mmHg and 88 mmHg and 99 mmHg. The “LVDP % Recovery” value ([3]; individual animals, Reperf. 40′ vs Baseline) was 42.6% and 64.2% and 70.7% and the “LVDP (Left Ventricular Developed Pressure), Baseline” value ([3]; individual animals, before ischemia) was 122 mmHg and 137 mmHg and 140 mmHg.
With `CCCCCCCCCCCCC/C=C/[C@@H](O)[C@@H](N)CO` [sphingosine, D-erythro-sphingosine] the “growth of bst1Δ cells” value (bst1Δ cells) was “completely inhibit” and the “growth of wildtype cells” value (wildtype cells) was “no effect”.
